Test results as given in US20260317320A1, “C5AR1 ANTAGONISTS AND USES THEREOF” (Vanqua Bio, Inc., priority 2022, published 2026).
Read-outs that look alike come from different tables or passages of the source.

Legend:
[1] = target: T1, complement C5a receptor 1 (C5aR1) (Homo sapiens, UniProt P21730); test: β-arrestin recruitment via C5aR1 activation in live CHO-K1 cells (PathHunter), antagonist mode; assay type: cell-based; details: antagonist mode; recombinant hC5a (EC90) as competing natural agonist; live CHO-K1 cells; read-out: [Antagonist] B-arrestin2 recruitment: Average IC50
T1 construct: β-galactosidase fragment (PathHunter enzyme complementation); host or cells: CHO-K1 (PathHunter CHO-K1 C5aR1 β-arrestin cell line)
T1 sequence (P21730 1-350): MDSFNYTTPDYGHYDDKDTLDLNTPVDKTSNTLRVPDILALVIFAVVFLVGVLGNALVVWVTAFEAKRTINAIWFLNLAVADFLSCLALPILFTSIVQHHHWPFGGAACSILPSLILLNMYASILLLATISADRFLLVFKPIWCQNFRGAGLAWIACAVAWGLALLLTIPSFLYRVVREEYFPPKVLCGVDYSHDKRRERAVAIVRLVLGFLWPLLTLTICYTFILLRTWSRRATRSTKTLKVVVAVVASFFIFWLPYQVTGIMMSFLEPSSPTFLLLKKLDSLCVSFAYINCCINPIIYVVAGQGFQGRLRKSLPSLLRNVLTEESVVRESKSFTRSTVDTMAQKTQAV
Procedure, shortened: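 Live CHO-K1 cells carry two galactosidase enzyme fragments, one fused to β-arrestin and one to C5aR1, so that β-arrestin recruitment restores enzyme activity. Agonist mode tests compounds alone. Antagonist mode tests them against recombinant hC5a at EC90, and IC50 values are reported in binned ranges.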

[2] = target: T1, complement C5a receptor 1 (C5aR1); test: β-arrestin recruitment via C5aR1 activation in live CHO-K1 cells (PathHunter), agonist mode; assay type: cell-based
Procedure: Exemplary compounds were evaluated for classical GPCR β-arrestin recruitment via complement C5a receptor 1 (C5aR1) activation in live CHO-K1 cells. This cell line expresses two fragments of the […] protein coupled to β-arrestin and C5aR1. Complementation of the two fragments allows for the assessment of both C5aR1 agonism and antagonism. Recombinant hC5a (EC90) was used as the competing natural agonist against disclosed compounds (more information on the expanded protocol and cell line can be found on the manufacturer's website: PathHunter® CHO-K1 C5aR1 β-arrestin cell line, DiscoverX, Catalog No. 93-0557C2). […] IC50 ranges: A: IC50≤500 nM; B: 500 nM<IC50≤5 uM; C: 5 uM<IC50≤100 uM; D: IC50>100 uM.

IC50 [1] [µM]	[Agonist] B-arrestin2 recruitment: Average EC50 (nM) [2]	[Agonist] B-arrestin2 recruitment: Average EC50 (nM) ([2]; at 10 μM)	Structure (SMILES)
5 to 100	Non-Active		Cc1cnc2cc(C3CCN(c4c(C)cccc4F)CC3)c(=O)n([C@@H]3CCC(F)(F)c4nccnc43)c2n1 [149A, (R)-5-(8,8-Difluoro-5,6,7,8-tetrahydroquinoxalin-5-yl)-7-(1-(2-fluoro-6-methylphenyl)piperidin-4-yl)-3-methylpyrido[2,3-b]pyrazin-6(5H)-one]
< 0.5	Non-Active		Cc1cnc2cc(C3CCN(c4c(C)cccc4F)CC3)c(=O)n([C@H]3CCC(F)(F)c4nccnc43)c2n1 [149B, (S)-5-(8,8-Difluoro-5,6,7,8-tetrahydroquinoxalin-5-yl)-7-(1-(2-fluoro-6-methylphenyl)piperidin-4-yl)-3-methylpyrido[2,3-b]pyrazin-6(5H)-one]
< 0.5		Non-Active at 10 μM	Cc1cnc2cc([C@H]3CC[C@@H](c4cnccc4C(F)(F)F)CC3)c(=O)n(Cc3ncccc3C(F)(F)F)c2n1 [150A, 3-Methyl-5-((3-(trifluoromethyl)pyridin-2-yl)methyl)-7-((1s,4s)-4-(4-(trifluoromethyl)pyridin-3-yl)cyclohexyl)pyrido[2,3-b]pyrazin-6(5H)-one]
< 0.5	Non-Active		Cc1cnc2cc([C@H]3CC[C@H](c4cnccc4C(F)(F)F)CC3)c(=O)n(Cc3ncccc3C(F)(F)F)c2n1 [150B, 3-Methyl-5-((3-(trifluoromethyl)pyridin-2-yl)methyl)-7-((1r,4r)-4-(4-(trifluoromethyl)pyridin-3-yl)cyclohexyl)pyrido[2,3-b]pyrazin-6(5H)-one]
5 to 100		Non-Active at 10 μM	Cc1cccc(F)c1N1CCC(c2cc3nccnc3n([C@H]3CCc4nccnc43)c2=O)CC1 [160A, (S)-5-(6,7-Dihydro-5H-cyclopenta[b]pyrazin-5-yl)-7-(1-(2-fluoro-6-methylphenyl)piperidin-4-yl)pyrido[2,3-b]pyrazin-6(5H)-one]
5 to 100		Non-Active at 10 μM	Cc1cccc(F)c1N1CCC(c2cc3nccnc3n([C@@H]3CCc4nccnc43)c2=O)CC1 [160B, (R)-5-(6,7-Dihydro-5H-cyclopenta[b]pyrazin-5-yl)-7-(1-(2-fluoro-6-methylphenyl)piperidin-4-yl)pyrido[2,3-b]pyrazin-6(5H)-one]
0.5 to 5		Non-Active at 10 μM	Cc1cnc2cc(N3CCN(c4c(C)cccc4F)CC3)c(=O)n(Cc3nccnc3OC(F)F)c2n1 [161A, 5-((3-(Difluoromethoxy)pyrazin-2-yl)methyl)-7-(4-(2-fluoro-6-methylphenyl)piperazin-1-yl)-3-methylpyrido[2,3-b]pyrazin-6(5H)-one]
5 to 100		Non-Active at 10 μM	Cc1cnc2cc(N3CCN(c4c(C)cccc4F)CC3)c(=O)n(Cc3nccn(C(F)F)c3=O)c2n1 [161B, 5-((4-(Difluoromethyl)-3-oxo-3,4-dihydropyrazin-2-yl)methyl)-7-(4-(2-fluoro-6-methylphenyl)piperazin-1-yl)-3-methylpyrido[2,3-b]pyrazin-6(5H)-one]
0.5 to 5		Non-Active at 10 μM	Cc1cnc2cc([C@H]3CC[C@@H](c4c(C)cccc4F)CC3)c(=O)n(Cc3nccnc3OC(F)F)c2n1 [168A, 5-((3-(Difluoromethoxy)pyrazin-2-yl)methyl)-7-((1s,4s)-4-(2-fluoro-6-methylphenyl)cyclohexyl)-3-methylpyrido[2,3-b]pyrazin-6(5H)-one]
< 0.5		Non-Active at 10 μM	Cc1cnc2cc([C@H]3CC[C@H](c4c(C)cccc4F)CC3)c(=O)n(Cc3nccnc3OC(F)F)c2n1 [168B, 5-((3-(Difluoromethoxy)pyrazin-2-yl)methyl)-7-((1r,4r)-4-(2-fluoro-6-methylphenyl)cyclohexyl)-3-methylpyrido[2,3-b]pyrazin-6(5H)-one]
